From paper PMC8778187, “A New Oxygen Containing Pyclen-Type Ligand as a Manganese(II) Binder for MRI and ^52Mn PET Applications: Equilibrium, Kinetic, Relaxometric, Structural and Radiochemical Studies” (Molecules, 2022)

Assay: 17O NMR and NMRD measurements (water exchange, rotation, hydration number)
Type: physicochemical
Method: The relaxivity of paramagnetic metal complexes is governed by several parameters, including the water exchange rate (kex), the rotational correlation time (τR), and the number of inner sphere water molecules (q). In order to obtain information for these parameters, temperature dependent ^17O NMR measurements (9.4 T) and nuclear magnetic relaxation dispersion (NMRD) experiments were carried out in the frequency range of 0.01–80 MHz, at 3 different temperatures (25, 37, and 50 °C). Since numerous physico-chemical parameters determine the relaxivity, the independent assessment of some of the parameters is essential for the correct characterization. The variable temperature ^17O NMR measurements can deliver information about kex and τR via the transverse (1/T2) and the longitudinal (1/T1) ^17O relaxation rates, respectively, while the ^17O chemical shifts (Δω) depend on q. Therefore, the transverse and longitudinal relaxation rates and chemical shifts for a [Mn(3,9-OPC2A)] complex and a diamagnetic reference sample (HClO4, pH = 3.3) have been determined in the aqueous solution.
The ^17O 1/T2r values and the NMRD data have been analyzed simultaneously by the Swift–Connick equations [31], as well as by the Solomon–Bloembergen–Morgan (SMB) and Freed models (see Supporting Information). In this calculation, the water exchange rate, kex^298; its activation enthalpy and entropy, ΔH^‡ and ΔS^‡; the rotational correlational time, τR; its activation energy, ER; the square of the zero-field splitting energy (ZFS), Δ^2; and the correlation time of its modulation, τv, have been determined and listed in Table 5, together with corresponding values of other complexes for comparison. As a result of the high number of parameters involved in the calculations, some have to be set to reasonable estimates based on literature data. Thus, the scalar coupling constant, A/ħO, is set to 33 × 10^6 rad s^−1, the distance between the metal ion, and the inner and outer sphere water protons are fixed to rMnH = 2.83 Å and aMnH = 3.6 Å, respectively; the diffusion coefficient and its activation energy are fixed to DMnH = 23 × 10^−10 m^2s^−1 and EMnH = 18 kJmol^−1, and the activation energy of the modulation of the zero-field-splitting, Ev to 1.0 kJmol^−1.
The hydration number has been fixed to q = 1, based on the relaxivity value measured at 20 MHz (r1 = 3.09 mM^−1s^−1), and on the value, 0.97 ± 0.2, determined for q using the method proposed by Gale et al..
A Bruker Avance 400 (9.4 T) spectrometer was used to measure the longitudinal (1/T1) and transverse (1/T2) relaxation rates, and the chemical shifts of an aqueous solution of the [Mn(3,9-OPC2A)] complex (pH = 7.4, 1.3 mM) and a diamagnetic reference (HClO4 acidified water, pH = 3.3) in the temperature range of 273–348 K. The temperature calibration was performed using literature protocols relying on ethylene glycol and methanol standards. The 1/T1 and 1/T2 values were determined by the inversion−recovery and the Carr−Purcell−Meiboom−Gill spin echo technique, respectively. To avoid susceptibility corrections of the chemical shifts, a glass sphere fitted into a 10 mm NMR tube was used to contain the samples. ^17O enriched water (10% H2^17O, CortecNet) was added to the solutions to improve sensitivity (circa 1% enrichment). Proton NMRD profiles of the [Mn(3,9-OPC2A)] complex (1.00 mM, pH = 7.4) were recorded in aqueous solution on a Stelar SMARTracer Fast Field Cycling relaxometer (0.01−10 MHz), and a Bruker WP80 NMR electromagnet adapted to variable field measurements (20−80 MHz) and controlled by a SMARTracer PC-NMR console (Stelar s.r.l., Mede, Italy). The temperature was monitored by a VTC91 temperature control unit and maintained by a gas flow. The temperature was determined by previous calibration with a Pt resistance temperature probe. […]

Compound: O=C([O-])CN1CCOCCN(CC(=O)[O-])Cc2cccc(n2)C1.[Mn+2] [[Mn(3,9-OPC2A)]]
- r1^298_20 MHz (20 MHz, 298 K): 3.09 mM⁻¹ s⁻¹
- ER (activation energy of rotation): 14.8 ± 0.6 kJmol^−1
- ΔH^‡ (activation enthalpy of water exchange): 28.5 ± 1.7 kJmol^−1
- ΔS^‡ (activation entropy of water exchange): −1.9 ± 0.8 JK^−1mol^−1
- τv^298 (correlation time of ZFS modulation): 19.3 ± 3.0 ps
- q (method proposed by Gale et al.) (hydration number from 17O NMR line widths): 0.97 ± 0.2
- q (hydration number, fixed during the fitting procedure): 1
- τR^298 (rotational correlation time): 40.0 ± 1.1 ps
- Δ^2 (square of the zero-field splitting energy): 17.8 ± 3.6 10^18s^−2
- kex^298 (water exchange rate with bulk solvent): 5.3 ± 0.4 × 10^7 s^−1
- kex^298 (water exchange rate, fit of 17O NMR and NMRD data): 5.3 ± 0.4 10^7s^−1
